Laboratory results reported in ChEMBL document CHEMBL3991601, “The target landscape of clinical kinase drugs” (Science, 2017).
Calls of active or inactive are those of the source.

Experiments:
Adenosine kinase = Adenosine kinase (Homo sapiens, UniProt P55263)
[1] = target: Serine/threonine-protein kinase B-raf (Homo sapiens, UniProt P15056)
[2] = target: Serine/threonine-protein kinase MRCK alpha (Homo sapiens, UniProt Q5VT25)
[3] = target: Serine/threonine-protein kinase MRCK beta (Homo sapiens, UniProt Q9Y5S2)
Chain of Serine/threonine-protein kinase MRCK beta (Q9Y5S2 whole entry, the tested form may be a part): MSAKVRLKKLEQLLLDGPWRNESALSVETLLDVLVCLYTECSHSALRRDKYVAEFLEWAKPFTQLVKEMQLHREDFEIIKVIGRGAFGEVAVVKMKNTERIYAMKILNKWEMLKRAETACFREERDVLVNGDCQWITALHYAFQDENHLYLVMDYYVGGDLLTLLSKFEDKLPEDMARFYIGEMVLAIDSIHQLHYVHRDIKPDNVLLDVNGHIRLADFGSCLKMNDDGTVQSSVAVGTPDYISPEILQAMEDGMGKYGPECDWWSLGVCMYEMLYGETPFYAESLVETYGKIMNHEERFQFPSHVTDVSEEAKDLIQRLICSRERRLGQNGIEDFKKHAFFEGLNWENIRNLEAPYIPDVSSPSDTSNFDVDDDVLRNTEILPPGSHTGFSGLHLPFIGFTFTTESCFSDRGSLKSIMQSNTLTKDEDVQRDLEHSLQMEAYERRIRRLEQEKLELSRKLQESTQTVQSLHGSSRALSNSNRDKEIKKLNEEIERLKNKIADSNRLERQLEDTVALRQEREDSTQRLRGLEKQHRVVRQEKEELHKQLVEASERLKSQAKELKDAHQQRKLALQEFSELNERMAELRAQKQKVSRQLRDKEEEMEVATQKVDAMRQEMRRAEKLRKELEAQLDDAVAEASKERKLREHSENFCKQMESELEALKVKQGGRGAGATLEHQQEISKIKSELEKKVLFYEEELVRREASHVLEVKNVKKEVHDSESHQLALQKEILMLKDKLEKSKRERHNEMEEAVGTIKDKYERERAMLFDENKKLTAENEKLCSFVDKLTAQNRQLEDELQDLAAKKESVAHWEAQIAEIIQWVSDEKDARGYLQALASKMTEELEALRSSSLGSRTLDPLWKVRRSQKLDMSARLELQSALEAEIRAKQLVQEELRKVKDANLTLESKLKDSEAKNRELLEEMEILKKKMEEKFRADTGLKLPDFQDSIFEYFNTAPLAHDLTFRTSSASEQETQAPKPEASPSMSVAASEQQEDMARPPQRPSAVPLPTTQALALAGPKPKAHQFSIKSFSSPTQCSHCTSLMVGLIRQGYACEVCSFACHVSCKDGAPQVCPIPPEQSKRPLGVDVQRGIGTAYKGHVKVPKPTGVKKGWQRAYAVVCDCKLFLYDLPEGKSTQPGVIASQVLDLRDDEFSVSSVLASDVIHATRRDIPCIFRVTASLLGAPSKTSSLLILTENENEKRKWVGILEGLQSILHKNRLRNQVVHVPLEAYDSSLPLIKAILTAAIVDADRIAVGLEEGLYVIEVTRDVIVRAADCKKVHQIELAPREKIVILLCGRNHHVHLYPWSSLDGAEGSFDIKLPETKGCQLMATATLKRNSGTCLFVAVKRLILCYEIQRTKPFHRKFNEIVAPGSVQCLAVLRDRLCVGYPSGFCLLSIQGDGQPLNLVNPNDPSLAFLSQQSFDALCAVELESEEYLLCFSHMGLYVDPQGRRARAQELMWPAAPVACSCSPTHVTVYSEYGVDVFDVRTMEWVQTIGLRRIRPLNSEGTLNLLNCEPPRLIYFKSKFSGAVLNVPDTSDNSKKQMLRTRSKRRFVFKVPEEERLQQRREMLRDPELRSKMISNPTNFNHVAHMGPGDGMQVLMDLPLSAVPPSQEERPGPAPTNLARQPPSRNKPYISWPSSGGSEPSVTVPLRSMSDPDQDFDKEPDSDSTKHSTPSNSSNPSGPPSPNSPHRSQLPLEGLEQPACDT

[4] = target: T1, Discoidin domain-containing receptor 2 (Homo sapiens, UniProt Q16832)
T1 sequence (Q16832 whole entry): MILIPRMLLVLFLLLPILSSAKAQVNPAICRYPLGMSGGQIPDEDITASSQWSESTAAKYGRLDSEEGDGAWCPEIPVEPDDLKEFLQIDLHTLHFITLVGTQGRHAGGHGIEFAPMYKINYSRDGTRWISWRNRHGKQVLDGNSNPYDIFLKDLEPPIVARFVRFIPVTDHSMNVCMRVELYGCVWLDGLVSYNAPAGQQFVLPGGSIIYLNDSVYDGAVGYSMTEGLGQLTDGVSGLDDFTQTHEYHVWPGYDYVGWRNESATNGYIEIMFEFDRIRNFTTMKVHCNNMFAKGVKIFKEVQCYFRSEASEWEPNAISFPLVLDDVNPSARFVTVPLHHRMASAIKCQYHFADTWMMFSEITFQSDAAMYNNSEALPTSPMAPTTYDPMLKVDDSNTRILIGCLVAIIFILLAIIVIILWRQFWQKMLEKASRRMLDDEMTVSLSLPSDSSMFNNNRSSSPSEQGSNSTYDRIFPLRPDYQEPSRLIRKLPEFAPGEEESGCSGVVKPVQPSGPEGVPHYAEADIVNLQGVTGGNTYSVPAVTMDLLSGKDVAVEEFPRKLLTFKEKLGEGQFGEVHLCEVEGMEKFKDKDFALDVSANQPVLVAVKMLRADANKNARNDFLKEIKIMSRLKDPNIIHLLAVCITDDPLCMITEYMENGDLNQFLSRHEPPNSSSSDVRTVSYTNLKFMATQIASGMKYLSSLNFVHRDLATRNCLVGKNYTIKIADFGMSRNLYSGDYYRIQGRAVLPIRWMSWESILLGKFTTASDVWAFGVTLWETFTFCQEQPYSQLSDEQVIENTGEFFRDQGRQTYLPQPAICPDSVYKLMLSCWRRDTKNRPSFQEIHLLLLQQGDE

[5] = target: Tyrosine-protein kinase Fyn (Homo sapiens, UniProt P06241)
Chain of Tyrosine-protein kinase Fyn (P06241 whole entry): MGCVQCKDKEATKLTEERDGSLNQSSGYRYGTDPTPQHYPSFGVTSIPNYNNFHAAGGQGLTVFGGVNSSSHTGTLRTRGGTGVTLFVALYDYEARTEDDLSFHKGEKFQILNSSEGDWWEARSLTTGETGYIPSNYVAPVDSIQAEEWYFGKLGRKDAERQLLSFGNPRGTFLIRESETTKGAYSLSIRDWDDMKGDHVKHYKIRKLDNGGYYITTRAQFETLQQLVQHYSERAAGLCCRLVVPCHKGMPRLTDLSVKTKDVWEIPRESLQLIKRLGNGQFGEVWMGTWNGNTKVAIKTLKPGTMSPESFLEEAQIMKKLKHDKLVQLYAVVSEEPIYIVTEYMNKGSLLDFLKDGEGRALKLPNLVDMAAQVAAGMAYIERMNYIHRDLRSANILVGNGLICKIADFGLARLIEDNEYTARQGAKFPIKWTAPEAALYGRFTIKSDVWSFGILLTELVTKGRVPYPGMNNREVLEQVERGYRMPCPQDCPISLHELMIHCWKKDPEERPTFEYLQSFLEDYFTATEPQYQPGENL

[6] = target: T2, MAP/microtubule affinity-regulating kinase 4 (Homo sapiens, UniProt Q96L34)
T2 sequence (Q96L34 whole entry): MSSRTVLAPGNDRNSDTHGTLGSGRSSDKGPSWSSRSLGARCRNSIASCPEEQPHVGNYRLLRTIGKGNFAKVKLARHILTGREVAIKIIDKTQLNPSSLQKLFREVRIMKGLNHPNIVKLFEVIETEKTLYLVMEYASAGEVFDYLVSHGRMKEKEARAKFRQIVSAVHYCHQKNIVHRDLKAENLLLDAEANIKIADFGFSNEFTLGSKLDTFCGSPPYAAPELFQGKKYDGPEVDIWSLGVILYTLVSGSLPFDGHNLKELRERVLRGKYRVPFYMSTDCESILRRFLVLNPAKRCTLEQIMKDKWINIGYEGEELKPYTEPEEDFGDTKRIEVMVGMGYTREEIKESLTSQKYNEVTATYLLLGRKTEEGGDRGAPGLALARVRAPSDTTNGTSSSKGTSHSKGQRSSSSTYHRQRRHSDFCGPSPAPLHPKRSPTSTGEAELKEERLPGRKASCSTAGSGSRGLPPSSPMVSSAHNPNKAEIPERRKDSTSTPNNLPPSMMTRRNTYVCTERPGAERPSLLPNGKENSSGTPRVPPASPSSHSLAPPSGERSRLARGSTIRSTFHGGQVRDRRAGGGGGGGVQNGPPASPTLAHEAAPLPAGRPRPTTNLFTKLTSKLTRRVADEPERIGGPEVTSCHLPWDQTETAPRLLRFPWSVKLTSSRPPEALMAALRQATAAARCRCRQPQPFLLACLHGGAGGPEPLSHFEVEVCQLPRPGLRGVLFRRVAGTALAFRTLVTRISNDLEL

[7] = target: T3, DNA replication licensing factor MCM4 (Homo sapiens, UniProt P33991)
T3 sequence (P33991 whole entry): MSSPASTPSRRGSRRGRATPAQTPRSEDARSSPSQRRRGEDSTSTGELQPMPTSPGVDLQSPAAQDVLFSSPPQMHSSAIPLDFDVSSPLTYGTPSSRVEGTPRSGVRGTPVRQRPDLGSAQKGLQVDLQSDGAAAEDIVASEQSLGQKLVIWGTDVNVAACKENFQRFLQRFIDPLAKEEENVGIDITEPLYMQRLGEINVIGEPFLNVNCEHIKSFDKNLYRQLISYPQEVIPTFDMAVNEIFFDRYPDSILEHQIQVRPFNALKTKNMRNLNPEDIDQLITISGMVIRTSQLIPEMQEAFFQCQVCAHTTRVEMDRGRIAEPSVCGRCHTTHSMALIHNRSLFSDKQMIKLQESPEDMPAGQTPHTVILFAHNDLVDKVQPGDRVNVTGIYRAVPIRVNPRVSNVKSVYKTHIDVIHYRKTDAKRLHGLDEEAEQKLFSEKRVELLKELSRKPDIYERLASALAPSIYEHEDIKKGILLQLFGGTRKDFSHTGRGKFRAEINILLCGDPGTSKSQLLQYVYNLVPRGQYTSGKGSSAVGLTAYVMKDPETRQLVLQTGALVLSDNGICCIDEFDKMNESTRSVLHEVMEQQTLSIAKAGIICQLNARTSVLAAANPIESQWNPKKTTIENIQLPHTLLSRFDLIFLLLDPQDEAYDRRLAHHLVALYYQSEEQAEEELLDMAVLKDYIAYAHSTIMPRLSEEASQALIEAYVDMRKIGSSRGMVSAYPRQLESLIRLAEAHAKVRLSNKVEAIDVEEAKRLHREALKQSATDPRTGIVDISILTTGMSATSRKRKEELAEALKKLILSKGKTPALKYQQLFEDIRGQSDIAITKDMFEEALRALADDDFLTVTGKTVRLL
Also: in the data inactive means no Kd found up to 30 µM.

Chain of Adenosine kinase (P55263 whole entry): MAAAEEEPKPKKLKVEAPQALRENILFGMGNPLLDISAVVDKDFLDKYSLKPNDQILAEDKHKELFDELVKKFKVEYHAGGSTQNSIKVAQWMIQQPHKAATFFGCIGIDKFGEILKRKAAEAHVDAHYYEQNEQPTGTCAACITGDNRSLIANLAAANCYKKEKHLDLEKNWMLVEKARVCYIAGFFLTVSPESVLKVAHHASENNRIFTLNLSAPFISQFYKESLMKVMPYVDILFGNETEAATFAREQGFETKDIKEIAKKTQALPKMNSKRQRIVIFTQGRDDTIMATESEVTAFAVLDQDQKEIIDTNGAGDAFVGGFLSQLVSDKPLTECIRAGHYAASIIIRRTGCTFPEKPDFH
Chain of Serine/threonine-protein kinase B-raf (P15056 whole entry): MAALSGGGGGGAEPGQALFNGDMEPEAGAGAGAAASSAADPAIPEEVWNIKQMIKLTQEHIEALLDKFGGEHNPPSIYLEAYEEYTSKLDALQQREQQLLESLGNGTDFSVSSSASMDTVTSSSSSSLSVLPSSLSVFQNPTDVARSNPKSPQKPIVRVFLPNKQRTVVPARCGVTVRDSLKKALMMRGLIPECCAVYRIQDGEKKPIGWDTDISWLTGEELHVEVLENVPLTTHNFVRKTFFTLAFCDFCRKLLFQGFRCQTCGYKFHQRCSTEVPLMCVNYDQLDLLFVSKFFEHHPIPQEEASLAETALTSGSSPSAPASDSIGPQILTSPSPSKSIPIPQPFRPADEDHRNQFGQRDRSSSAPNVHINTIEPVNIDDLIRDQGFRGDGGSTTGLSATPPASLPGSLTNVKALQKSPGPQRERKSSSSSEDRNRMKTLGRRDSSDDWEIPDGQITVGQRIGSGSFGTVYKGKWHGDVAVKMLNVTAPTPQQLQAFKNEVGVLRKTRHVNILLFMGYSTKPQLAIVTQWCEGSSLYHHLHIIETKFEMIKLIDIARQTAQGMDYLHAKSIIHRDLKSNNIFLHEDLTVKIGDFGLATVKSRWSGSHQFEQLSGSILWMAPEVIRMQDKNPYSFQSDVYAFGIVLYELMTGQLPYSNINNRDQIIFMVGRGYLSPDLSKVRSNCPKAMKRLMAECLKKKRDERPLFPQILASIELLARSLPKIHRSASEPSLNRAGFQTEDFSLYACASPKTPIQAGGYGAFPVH
Chain of Serine/threonine-protein kinase MRCK alpha (Q5VT25 whole entry): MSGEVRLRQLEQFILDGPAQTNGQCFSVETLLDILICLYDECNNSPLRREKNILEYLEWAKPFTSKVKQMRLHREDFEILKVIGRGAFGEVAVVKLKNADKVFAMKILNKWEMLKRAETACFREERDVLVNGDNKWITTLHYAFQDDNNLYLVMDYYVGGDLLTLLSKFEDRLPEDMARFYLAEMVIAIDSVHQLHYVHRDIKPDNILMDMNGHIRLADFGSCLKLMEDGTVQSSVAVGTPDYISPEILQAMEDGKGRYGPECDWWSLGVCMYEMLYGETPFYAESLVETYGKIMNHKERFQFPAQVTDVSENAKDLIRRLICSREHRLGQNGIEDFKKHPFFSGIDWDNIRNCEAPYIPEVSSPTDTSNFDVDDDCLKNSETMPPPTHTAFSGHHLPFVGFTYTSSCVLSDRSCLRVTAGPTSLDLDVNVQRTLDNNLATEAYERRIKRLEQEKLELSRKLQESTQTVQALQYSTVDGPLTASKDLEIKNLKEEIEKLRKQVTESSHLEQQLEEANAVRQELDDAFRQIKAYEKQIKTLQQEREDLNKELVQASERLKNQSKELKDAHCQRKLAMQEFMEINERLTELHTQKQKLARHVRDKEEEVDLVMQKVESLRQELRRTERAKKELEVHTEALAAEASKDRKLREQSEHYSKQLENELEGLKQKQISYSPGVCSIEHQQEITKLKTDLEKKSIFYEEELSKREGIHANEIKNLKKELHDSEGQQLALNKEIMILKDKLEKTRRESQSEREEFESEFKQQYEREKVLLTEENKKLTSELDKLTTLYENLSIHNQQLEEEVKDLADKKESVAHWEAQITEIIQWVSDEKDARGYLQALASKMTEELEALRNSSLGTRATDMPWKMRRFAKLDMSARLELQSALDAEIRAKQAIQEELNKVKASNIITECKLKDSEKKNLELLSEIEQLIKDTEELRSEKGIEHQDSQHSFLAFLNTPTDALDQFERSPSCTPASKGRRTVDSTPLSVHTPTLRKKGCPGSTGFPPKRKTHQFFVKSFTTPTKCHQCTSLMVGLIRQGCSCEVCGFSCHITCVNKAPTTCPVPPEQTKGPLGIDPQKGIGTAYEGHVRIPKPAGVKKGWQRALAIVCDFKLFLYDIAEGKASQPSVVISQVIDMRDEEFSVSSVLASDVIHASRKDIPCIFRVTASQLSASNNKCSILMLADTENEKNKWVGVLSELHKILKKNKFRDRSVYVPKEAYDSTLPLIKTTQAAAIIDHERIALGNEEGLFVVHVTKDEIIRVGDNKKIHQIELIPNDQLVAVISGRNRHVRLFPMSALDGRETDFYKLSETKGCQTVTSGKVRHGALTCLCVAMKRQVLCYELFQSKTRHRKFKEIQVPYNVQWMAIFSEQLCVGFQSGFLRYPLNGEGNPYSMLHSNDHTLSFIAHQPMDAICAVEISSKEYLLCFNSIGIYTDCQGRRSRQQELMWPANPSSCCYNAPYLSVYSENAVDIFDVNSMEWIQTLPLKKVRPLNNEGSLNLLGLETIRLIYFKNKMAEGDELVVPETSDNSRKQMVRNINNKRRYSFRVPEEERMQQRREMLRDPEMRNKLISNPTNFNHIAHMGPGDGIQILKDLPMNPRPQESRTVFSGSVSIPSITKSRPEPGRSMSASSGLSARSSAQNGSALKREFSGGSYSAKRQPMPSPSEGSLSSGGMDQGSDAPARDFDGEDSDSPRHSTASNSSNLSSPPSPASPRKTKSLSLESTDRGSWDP

Compound	Kd (Adenosine kinase)	Kd [1]	Kd [2]	Kd [3]	Kd [4]	Kd [5]	Kd [6]	Kd [7]
O=c1sn(-c2cccc3ccccc23)c(=O)n1Cc1ccccc1 [TIDEGLUSIB]	> 30 µM (inactive)	> 30 µM (inactive)	> 30 µM (inactive)	> 30 µM (inactive)	> 30 µM (inactive)	> 30 µM (inactive)	> 30 µM (inactive)	> 30 µM (inactive)
Cn1ncc(Cl)c1-c1cc(C(=O)N[C@H](CN)Cc2cccc(F)c2)sc1Cl [AFURESERTIB]		> 30 µM (inactive)	> 30 µM (inactive)	> 30 µM (inactive)	> 30 µM (inactive)	> 30 µM (inactive)	> 30 µM (inactive)	> 30 µM (inactive)
CNS(=O)(=O)Nc1nccc(Cc2c(C)c3ccc(Oc4ncccn4)cc3oc2=O)c1F [AVUTOMETINIB]	> 30 µM (inactive)	0.007 µM	> 30 µM (inactive)	> 30 µM (inactive)	> 30 µM (inactive)	> 30 µM (inactive)	> 30 µM (inactive)	> 30 µM (inactive)
CN(C)C(=O)c1cc2cnc(Nc3ccc(N4CCNCC4)cn3)nc2n1C1CCCC1 [RIBOCICLIB]	> 30 µM (inactive)	> 30 µM (inactive)	> 30 µM (inactive)	> 30 µM (inactive)	> 30 µM (inactive)	> 30 µM (inactive)	> 30 µM (inactive)	> 30 µM (inactive)
COc1ccc(-c2ccc3c(N4CCOC[C@@H]4C)nc(N4CCOC[C@@H]4C)nc3n2)cc1CO [AZD-8055]	> 30 µM (inactive)	> 30 µM (inactive)	> 30 µM (inactive)	> 30 µM (inactive)	> 30 µM (inactive)	> 30 µM (inactive)	> 30 µM (inactive)	> 30 µM (inactive)
C[C@@H](Nc1cc(F)cc(F)c1)c1cc(C(=O)N(C)C)cc2c(=O)cc(N3CCOCC3)oc12 [AZD-8186]	> 30 µM (inactive)	> 30 µM (inactive)	> 30 µM (inactive)	> 30 µM (inactive)	> 30 µM (inactive)	> 30 µM (inactive)	> 30 µM (inactive)	> 30 µM (inactive)
CNC(=O)CN1CCC(Oc2cc3c(Nc4cccc(Cl)c4F)ncnc3cc2OC)CC1 [SAPITINIB]	1.4 µM	> 30 µM (inactive)	> 30 µM (inactive)	> 30 µM (inactive)	> 30 µM (inactive)	> 30 µM (inactive)	> 30 µM (inactive)	> 30 µM (inactive)
CNC(=O)c1ccc(C)c(-n2c(C)cc(OCc3ccc(F)cc3F)c(Br)c2=O)c1 [PH-797804]	> 30 µM (inactive)	> 30 µM (inactive)	> 30 µM (inactive)	> 30 µM (inactive)	> 30 µM (inactive)	> 30 µM (inactive)	> 30 µM (inactive)	> 30 µM (inactive)
COC(=O)[C@@]1(O)C[C@H]2O[C@]1(C)n1c3ccccc3c3c4c(c5c6ccccc6n2c5c31)C(=O)NC4 [K-252A]	> 30 µM (inactive)	> 30 µM (inactive)	> 30 µM (inactive)	> 30 µM (inactive)	> 30 µM (inactive)	> 30 µM (inactive)	0.028 µM (active)	> 30 µM (inactive)
CN1CCC(COc2cnc(-c3cccc(Cn4nc(-c5cccc(C#N)c5)ccc4=O)c3)nc2)CC1 [TEPOTINIB]	> 30 µM (inactive)	> 30 µM (inactive)	> 30 µM (inactive)	> 30 µM (inactive)	> 30 µM (inactive)	> 30 µM (inactive)	> 30 µM (inactive)	> 30 µM (inactive)
COc1cc(N2CCC(N3CCN(C)CC3)CC2)ccc1Nc1ncnc(Nc2ccccc2S(=O)(=O)C(C)C)n1 [ASP-3026]		> 30 µM (inactive)	> 30 µM (inactive)	> 30 µM (inactive)	> 30 µM (inactive)	1.53 µM (active)	> 30 µM (inactive)	> 30 µM (inactive)
CNC(=O)c1ccc(-c2cnc3ncc(Cc4ccc5ncccc5c4)n3n2)cc1F [CAPMATINIB]	> 30 µM (inactive)	> 30 µM (inactive)	> 30 µM (inactive)	> 30 µM (inactive)	> 30 µM (inactive)	> 30 µM (inactive)	> 30 µM (inactive)	> 30 µM (inactive)
CCn1c(=O)c(-c2cc[nH]n2)cc2c(C)nc(N)nc21 [VOXTALISIB]	> 30 µM (inactive)	> 30 µM (inactive)	> 30 µM (inactive)	> 30 µM (inactive)	> 30 µM (inactive)	> 30 µM (inactive)	> 30 µM (inactive)	> 30 µM (inactive)
COc1cc(OC)c(/C=C/S(=O)(=O)Cc2ccc(OC)c(NCC(=O)O)c2)c(OC)c1 [RIGOSERTIB]	> 30 µM (inactive)	> 30 µM (inactive)	> 30 µM (inactive)	> 30 µM (inactive)	> 30 µM (inactive)	> 30 µM (inactive)	> 30 µM (inactive)	
Cn1cc(-c2ccc(F)c(C(F)(F)F)c2)nc1C1CCN(c2ncnc3[nH]ncc23)CC1 [LY-2584702]	> 30 µM (inactive)	> 30 µM (inactive)	> 30 µM (inactive)	> 30 µM (inactive)	> 30 µM (inactive)	> 30 µM (inactive)	> 30 µM (inactive)	
O=C1NC(=O)/C(=C/c2ccc3nccc(-c4ccncc4)c3c2)S1 [GSK-1059615]		> 30 µM (inactive)	> 30 µM (inactive)	> 30 µM (inactive)	> 30 µM (inactive)	> 30 µM (inactive)	> 30 µM (inactive)	> 30 µM (inactive)
C1=C/COCc2cc(ccc2OCCN2CCCC2)Nc2nccc(n2)-c2cccc(c2)COC/1 [PACRITINIB]	> 30 µM (inactive)	> 30 µM (inactive)	> 30 µM (inactive)	> 30 µM (inactive)	> 30 µM (inactive)	> 30 µM (inactive)	> 30 µM (inactive)	
O=C(c1ccc(F)c(F)c1Nc1ccc(I)cc1F)N1CC(O)([C@@H]2CCCCN2)C1 [COBIMETINIB]		> 30 µM (inactive)	> 30 µM (inactive)	> 30 µM (inactive)	> 30 µM (inactive)	> 30 µM (inactive)	> 30 µM (inactive)	> 30 µM (inactive)
